Measurements reported in paper PMC10458530, “Synthesis and Evaluation of ePSMA-DM1: A New Theranostic Small-Molecule Drug Conjugate (T-SMDC) for Prostate Cancer” (Pharmaceuticals, 2023).
“And” between values parts separate entries of the source, which are not always exact repeats. Equal values may be shown once. “Also recorded” adds a separate entry of the source. Read-outs that look alike come from different tables or passages of the source. Each block holds one molecule with its values, some of them ahead of it. Non-standard residues stand in square brackets, D forms with d. Residues, ends and D or L forms follow the SMILES beside them. *: point of attachment. Propanoyl(3-SS-DM1) = COc1cc2cc(c1Cl)N(C)C(=O)C[C@H](OC(=O)[C@H](C)N(C)C(=O)CCSSCCC(=O)*)[C@]1(C)O[C@H]1[C@H](C)[C@@H]1C[C@@](O)(NC(=O)O1)[C@H](OC)/C=C/C=C(\C)C2; DOTA = O=C(O)CN1CCN(CC(=O)O)CCN(CC(=O)*)CCN(CC(=O)O)CC1; EuK = O=C(O)CC[C@H](NC(=O)N[C@@H](CCCCN*)C(=O)O)C(=O)O; Sta = CC(C)C[C@H](N)[C@@H](O)CC(=O)O; Ahx = NCCCCCC(=O)O

Legend:
[1] = system: PSMA-positive LS174T cells; experiment: Resazurin-based cytotoxicity assay; format: cell-based, human; details: for cell viability: 48 h post treatment
Experimental: LS174T human colon carcinoma cells transfected with human PSMA were cultured in RPMI-1640 media supplemented with 2 mM glutamine, 10% fetal bovine serum (FBS) and 0.3 mg/mL G418 (Geneticin, Sigma Aldrich, Burlington, MA, USA). The cells were provided by Dr. Sandra Heskamp (Radboud UMC, Nijmegen, The Netherlands).
A resazurin in vitro toxicology assay kit was used to determine cytotoxicity. Briefly, 5 × 10^3 LS174T cells were seeded in a volume of 100 µL per well in 96-well plates and incubated at 37 °C with 5% CO2 for 24 h before the experiment. After incubation, the media were removed, and the wells were washed once with PBS. Then, ePSMA-DM1 at the concentrations of 1, 10, 100 and 1000 nM and the positive control DM1 (1000 nM) were prepared in culture media (RPMI-1640 media supplemented with 2 mM glutamine, 10% fetal bovine serum (FBS) and 0.3 mg/mL G418). Media and PSMA-617 (100 nM) were used as negative controls. Cells were incubated with 100 µL of the tested compounds for 48 and 72 h at 37 °C with 5% CO2. After incubation, media were removed, and each well was washed once with PBS. Next, 100 µL of 10% resazurin solution (TOX8, Sigma-Aldrich) in culture media was added to each well and incubated for 2.5 h. Fluorescence was measured using the HIDEX Sense Optical System with excitation at 544 nm and emission at 590 nm. Data were analyzed using GraphPad Prism 9.0 and expressed as cell viability (%). The experiments were performed in triplicate.

Recombinant human PSMA = molecular target: T1, Recombinant human PSMA (Homo sapiens, UniProt Q04609); experiment: NAALADase enzymatic assay (binding to PSMA); format: biochemical
T1 construct: purchased R & D systems, Abingdon, UK
Experimental: Recombinant human PSMA (rhPSMA; R & D systems, Abingdon, UK) was diluted in assay buffer (50 mM HEPES, 0.1 M NaCl, pH 7.5) to 0.4 μg/mL. The substrate Ac-Asp-Glu (40 μM) was mixed with ePSMA-DM1 or with a reference (PSMA-617) at concentrations ranging from 10^−6 to 10^−13 M in a final volume of 12.5 μL assay buffer. The mixtures were combined with 12.5 μL of the rhPSMA solution and incubated for 1 h at 37 °C in 384-well black polystyrene microplates (ThermoFisher, Bleiswijk, The Netherlands). A volume of 25 μL of a working solution of the Amplex Red glutamic acid kit (ThermoFisher, Bleiswijk, The Netherlands) was added and incubated at 37 °C for 30 min. Release of glutamate was measured by fluorescence with a HIDEX Sense Optical System (Goedereede, The Netherlands) set at 535 nm (excitation) and 590 nm (emission). Data were normalized, and one-site total binding regression was applied for analysis with GraphPad Prism v9.0 (GraphPad Software, San Diego, CA, USA).

[2] = system: BALB/c nu/nu LS174T xenografted mice; experiment: Ex vivo biodistribution; format: in vivo, mouse; details: estimated, one-phase decay
Experimental: Animal experiments were performed using male BALB/c nude mice (8–10 weeks old; Janvier Labs, Le Genest-Saint-Isle, France). Animals were housed in individually ventilated cages (Blue line IVC, 2 mice per cage) under sterile standard conditions with cage enrichments present and free access to animal chow (Sniff GmbH, Soest, Germany) and water. They were acclimated for 1 week prior to experiments. Mice were subcutaneously inoculated with 4.0 × 10^6 LS174T cells in the right flank diluted in 100 μL of cell suspension […]. The average tumor volume size per group (n = 4) was of 206.2 ± 7.9 mm^3 (average weight of 105.8 ± 7.3 mg) after non-blinded grouping to enable homogenous tumor size distribution. [^111In]In-ePSMA-DM1 was injected intravenously via the tail vein. All experiments were approved by the institutional Animal Welfare Committee and were conducted in accordance to the guidelines of the Revised Dutch Act on Animal Experimentation (WOD).
Mice were intravenously injected with ~1 nmol of [^111In]In-ePSMA-DM1 (5 MBq). Mice (n = 4/timepoint) were euthanized by cervical dislocation at 1, 4 and 24 h p.i. A block group (co-injection of 50 nmol of PSMA-617) was included, and mice were euthanized at 4 h p.i. Organs (blood, heart, lungs, liver, spleen, stomach, intestines, pancreas, kidneys, muscle, skin, bone and prostate) and the tumors were collected in pre-weighed tubes, weighed after organ collection, and measured in the γ-counter, for which the calibration factor was determined by measuring different known activities of In-111. Activity was corrected for decay, and uptake was expressed as percentage of the injected dose per gram of the tissue (% ID/g). The biological half-lives in tissues of [^111In]In-ePSMA-DM1 were determined using a one-phase decay algorithm in GraphPad Prism 9.0 (GraphPad Software, Boston, MA, USA).

Stability in mouse serum = format: in vitro ADME; details: 24 h post incubation, 37 °C
Experimental: [^111In]In-ePSMA-DM1 (~30 MBq, 70 µL) was mixed with 330 μL of mouse serum and incubated at 37 °C for up to 24 h. To a separate vial containing 50 µL of acetonitrile, 50 μL of the mouse serum solution was added after 1, 4 and 24 h of incubation. The sample was centrifuged at 5000× g for 20 min. The supernatant was analyzed by radio-HPLC.

Stability in PBS = format: physicochemical; details: 24 h post incubation, 37 °C
Experimental: [^111In]In-ePSMA-DM1 (~10 MBq, 20 µL) was mixed with 80 μL of PBS (0.01 M, pH 7.4) and incubated at 37 °C for up to 24 h. A sample of the PBS solution was loaded directly onto the radio-HPLC at 1, 4 and 24 h post incubation.

[3] = Glutathione (GSH) stability / drug release assay; format: in vitro ADME
Experimental: The protocol was adapted from the literature. A 5 mM solution of L-glutathione was prepared in PBS, and 990 μL aliquots were dispensed into Eppendorf tubes. To each tube, 10 μL of a solution of ePSMA-DM1 (1 mM) in MeOH was added, and the mixtures were incubated at 37 °C. Then 50 μL aliquots of the solution were taken at 10 min, 30 min, 1, 2, 4 and 6 h and analyzed by LC-MS. The experiments were performed in triplicate.

T1 sequence (Q04609 whole entry): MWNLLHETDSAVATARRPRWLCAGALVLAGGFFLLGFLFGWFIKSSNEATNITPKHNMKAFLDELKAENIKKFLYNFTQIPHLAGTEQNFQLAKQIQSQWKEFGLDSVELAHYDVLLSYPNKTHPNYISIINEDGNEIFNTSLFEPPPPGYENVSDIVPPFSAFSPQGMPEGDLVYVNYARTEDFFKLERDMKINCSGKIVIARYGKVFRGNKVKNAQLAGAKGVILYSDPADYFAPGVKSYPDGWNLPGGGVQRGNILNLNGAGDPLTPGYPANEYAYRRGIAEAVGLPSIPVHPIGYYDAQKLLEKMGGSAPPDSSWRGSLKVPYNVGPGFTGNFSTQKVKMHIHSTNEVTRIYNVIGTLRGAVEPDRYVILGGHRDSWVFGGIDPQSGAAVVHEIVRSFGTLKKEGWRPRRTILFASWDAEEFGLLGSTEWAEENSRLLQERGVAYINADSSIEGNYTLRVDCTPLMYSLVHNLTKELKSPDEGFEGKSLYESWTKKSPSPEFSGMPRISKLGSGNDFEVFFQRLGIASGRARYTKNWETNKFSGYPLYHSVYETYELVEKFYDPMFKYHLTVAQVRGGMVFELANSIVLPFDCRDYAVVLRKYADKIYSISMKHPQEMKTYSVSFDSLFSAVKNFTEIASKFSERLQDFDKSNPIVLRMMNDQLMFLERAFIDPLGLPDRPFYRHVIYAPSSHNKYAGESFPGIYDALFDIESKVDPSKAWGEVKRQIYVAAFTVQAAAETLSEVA

Compound: COc1cc2cc(c1Cl)N(C)C(=O)C[C@H](OC(=O)[C@H](C)N(C)C(=O)CCS)[C@]1(C)O[C@H]1[C@H](C)[C@@H]1C[C@@](O)(NC(=O)O1)[C@H](OC)/C=C/C=C(\C)C2 [DM1, Mertansine, reference compound]
cell viability ([1]; 1000 nM): ~ 50% | decrease in cell viability ([1]; 1000 nM, 72 h): more than 85%

IC50 (Recombinant human PSMA; NAALADase assay, rhPSMA, substrate Ac-Asp-Glu, read-out: IC50 (binding affinity to PSMA)): 2.19 ± 0.78 nM
Compound: O=C(O)CC[C@H](NC(=O)N[C@@H](CCCCNC(=O)[C@H](Cc1ccc2ccccc2c1)NC(=O)[C@H]1CC[C@H](CNC(=O)CN2CCN(CC(=O)O)CCN(CC(=O)O)CCN(CC(=O)O)CC2)CC1)C(=O)O)C(=O)O [PSMA-617, reference compound]
decrease in viability ([1]; 100 nM, negative control): not observed

Compound: COc1cc2cc(c1Cl)N(C)C(=O)C[C@H](OC(=O)[C@H](C)N(C)C(=O)CCSSCCC(=O)NCCCC[C@H](NC(=O)CN1CCN(CC(=O)O)CCN(CC(=O)O)CCN(CC(=O)O)CC1)C(=O)N[C@@H](CC(=O)O)C(=O)N[C@@H](Cc1ccccc1)C(=O)N[C@@H](CC(C)C)[C@@H](O)CC(=O)NCCCCCC(=O)NCCCC[C@H](NC(=O)N[C@@H](CCC(=O)O)C(=O)O)C(=O)O)[C@]1(C)O[C@H]1[C@H](C)[C@@H]1C[C@@](O)(NC(=O)O1)[C@H](OC)/C=C/C=C(\C)C2 [[^111In]In-ePSMA-DM1] [metal not drawn] ({DOTA}-K(Propanoyl(3-SS-DM1))DF[Sta][Ahx]-EuK)
half-life in the blood [2]: 1.5 h | half-life in the tumor [2]: 2.1 h | Stability in Mouse Serum (%) (Stability in mouse serum): 82.9% | Stability in PBS (%) (Stability in PBS): 90.9%

Compound: COc1cc2cc(c1Cl)N(C)C(=O)C[C@H](OC(=O)[C@H](C)N(C)C(=O)CCSSCCC(=O)NCCCC[C@H](NC(=O)CN1CCN(CC(=O)O)CCN(CC(=O)O)CCN(CC(=O)O)CC1)C(=O)N[C@@H](CC(=O)O)C(=O)N[C@@H](Cc1ccccc1)C(=O)N[C@@H](CC(C)C)[C@@H](O)CC(=O)NCCCCCC(=O)NCCCC[C@H](NC(=O)N[C@@H](CCC(=O)O)C(=O)O)C(=O)O)[C@]1(C)O[C@H]1[C@H](C)[C@@H]1C[C@@](O)(NC(=O)O1)[C@H](OC)/C=C/C=C(\C)C2 [[^177Lu]Lu-ePSMA-DM1] [metal not drawn] ({DOTA}-K(Propanoyl(3-SS-DM1))DF[Sta][Ahx]-EuK)
Stability in Mouse Serum (%) (Stability in mouse serum): 91.2% | Stability in PBS (%) (Stability in PBS): 81.4%

Compound: COc1cc2cc(c1Cl)N(C)C(=O)C[C@H](OC(=O)[C@H](C)N(C)C(=O)CCSSCCC(=O)NCCCC[C@H](NC(=O)CN1CCN(CC(=O)O)CCN(CC(=O)O)CCN(CC(=O)O)CC1)C(=O)N[C@@H](CC(=O)O)C(=O)N[C@@H](Cc1ccccc1)C(=O)N[C@@H](CC(C)C)[C@@H](O)CC(=O)NCCCCCC(=O)NCCCC[C@H](NC(=O)N[C@@H](CCC(=O)O)C(=O)O)C(=O)O)[C@]1(C)O[C@H]1[C@H](C)[C@@H]1C[C@@](O)(NC(=O)O1)[C@H](OC)/C=C/C=C(\C)C2 [ePSMA-DM1] ({DOTA}-K(Propanoyl(3-SS-DM1))DF[Sta][Ahx]-EuK)
IC50 (Recombinant human PSMA): 45.3 ± 1.84 nM | cytotoxic effect ([1]; 1 nM, 48 and 72 h): not sufficient to elicit cell death; also recorded: not observed | cell viability ([1]; 100 nM): ~ 50% | cell viability ([1]; 1000 nM): ~ 50% | drug released ([3]; after 2 h, 5 mM GSH): ~ 50% and 50% | half-life at 10 µM ([3]; buffer, 5 mM GSH in PBS, 37 °C, read-out: half-life in a reducing environment (converted)): 2 h
